# Measurements reported in paper PMC11062894, “Protein-based bandpass filters for controlling cellular signaling with chemical inputs” (Nature Chemical Biology, 2023).
# Several values for one entry are separate records, joined by “and”; a condition that tells them apart may be missing. Identical values can stand only once.
# Tested on: GEMS receptors with CBPvene (Bcl2–LD3 and Bcl2high variants), STAT3-driven SEAP in HEK293T cells
# Assay: GEMS SEAP reporter assay, CBPvene (Bcl2high, LD3-v and Bcl2-v variants) with venetoclax
# Type: cell-based
# [1] = CBPVene-v4-LD3v1, Venetoclax 10 nM
# [2] = CBPVene-v4-LD3v1, Venetoclax 31.6 nM
# [3] = CBPVene-v4-LD3v1, Venetoclax 100 nM
# [4] = CBPVene-v4-LD3v1, Venetoclax 316 nM
# [5] = CBPVene-v4-LD3v1, Venetoclax 1000 nM
# [6] = CBPVene-v4-LD3v1, Venetoclax 3160 nM
# [7] = CBPVene-v4-LD3v1, Venetoclax 10000 nM
# [8] = CBPVene-v5, Venetoclax 10000 nM
# [9] = CBPVene-v5-Bcl2v2, Venetoclax 1 nM
# [10] = CBPVene-v5-Bcl2v2, Venetoclax 3.16 nM
# [11] = CBPVene-v5-Bcl2v2, Venetoclax 10 nM
# [12] = CBPVene-v5-Bcl2v2, Venetoclax 31.6 nM
# [13] = CBPVene-v5-Bcl2v2, Venetoclax 316 nM
smiles,measurement,setting,value
CC1(C)CCC(CN2CCN(c3ccc(C(=O)NS(=O)(=O)c4ccc(NCC5CCOCC5)c([N+](=O)[O-])c4)c(Oc4cnc5[nH]ccc5c4)c3)CC2)=C(c2ccc(Cl)cc2)C1 [Venetoclax],Raw data Figure 5c,[1],19.6376 and 23.1796 and 21.4266
same,Raw data of Independent repeat of CBPVene-v4 vs CBPVene-v4-LD3v1,[1],12.5143 and 15.3613 and 14.2991
same,Normalized data Figure 5c,[2],33.2758 and 29.1991 and 22.5234
same,Raw data Figure 5c,[2],32.1154 and 36.1941 and 32.5835
same,Raw data of Independent repeat of CBPVene-v4 vs CBPVene-v4-LD3v1,[2],19.3224 and 24.3766 and 24.2685
same,Normalized data Figure 5c,[3],89.5011 and 73.3407 and 58.8514
same,Raw data Figure 5c,[3],86.38 and 90.9103 and 85.1375
same,Raw data of Independent repeat of CBPVene-v4 vs CBPVene-v4-LD3v1,[3],49.6855 and 59.8551 and 68.5591
same,Normalized data Figure 5c,[4],100
same,Raw data Figure 5c,[4],96.5128 and 123.956 and 144.665
same,Raw data of Independent repeat of CBPVene-v4 vs CBPVene-v4-LD3v1,[4],75.2259 and 81.7396 and 83.8142
same,Normalized data Figure 5c,[5],92.1259 and 70.027 and 66.0891
same,Raw data Figure 5c,[5],88.9133 and 86.8028 and 95.608
same,Raw data of Independent repeat of CBPVene-v4 vs CBPVene-v4-LD3v1,[5],55.2813 and 57.5308 and 55.9265
same,Normalized data Figure 5c,[6],41.115 and 38.8368 and 34.8585
same,Raw data Figure 5c,[6],39.6812 and 48.1406 and 50.4281
same,Raw data of Independent repeat of CBPVene-v4 vs CBPVene-v4-LD3v1,[6],23.1338 and 27.3241 and 29.5684
same,Normalized data Figure 5c,[7],12.9494 and 11.4961 and 9.578
same,Raw data Figure 5c,[7],12.4978 and 14.2501 and 13.8554
same,Raw data of Independent repeat of CBPVene-v4 vs CBPVene-v4-LD3v1,[7],8.884 and 10.4059 and 11.3993
same,Raw data of Independent repeat of CBPVene-v5 vs CBPVene-v5-LD3v1,"CBPVene-v5, Venetoclax 0.01 nM",29.6718 and 24.6839 and 26.501
same,Normalized data Figure 5c,"CBPVene-v5, Venetoclax 1 nM",7.442 and 6.278 and 6.718
same,Raw data Figure 5c,"CBPVene-v5, Venetoclax 1 nM",29.5956 and 26.0853 and 29.9849
same,Normalized data Figure 5c,"CBPVene-v5, Venetoclax 3.16 nM",9.477 and 7.971 and 8.021
same,Normalized data Figure 5f,"CBPVene-v5, Venetoclax 3.16 nM",5.255 and 4.508 and 3.901
same,Raw data Figure 5c,"CBPVene-v5, Venetoclax 3.16 nM",37.6876 and 33.119 and 35.8015
same,Raw data Figure 5f,"CBPVene-v5, Venetoclax 3.16 nM",30.3563 and 26.3908 and 26.6345
same,Raw data of Independent repeat of CBPVene-v5 vs CBPVene-v5-LD3v1,"CBPVene-v5, Venetoclax 3.16 nM",30.3563 and 26.3908 and 26.6345
same,Normalized data Figure 5c,"CBPVene-v5, Venetoclax 10 nM",11.5779 and 11.0151 and 10.8723
same,Normalized data Figure 5f,"CBPVene-v5, Venetoclax 10 nM",9.191 and 6.8128 and 6.589
same,Raw data Figure 5c,"CBPVene-v5, Venetoclax 10 nM",46.0425 and 45.7651 and 48.5281
same,Raw data Figure 5f,"CBPVene-v5, Venetoclax 10 nM",53.0904 and 39.8802 and 44.9895
same,Raw data of Independent repeat of CBPVene-v5 vs CBPVene-v5-LD3v1,"CBPVene-v5, Venetoclax 10 nM",53.0904 and 39.8802 and 44.9895
same,Normalized data Figure 5c,"CBPVene-v5, Venetoclax 31.6 nM",35.6775 and 32.4284 and 35.7596
same,Normalized data Figure 5f,"CBPVene-v5, Venetoclax 31.6 nM",4.7681 and 4.341 and 3.633
same,Raw data Figure 5c,"CBPVene-v5, Venetoclax 31.6 nM",141.881 and 134.732 and 159.612
same,Raw data Figure 5f,"CBPVene-v5, Venetoclax 31.6 nM",27.5418 and 25.4102 and 24.8086
same,Raw data of Independent repeat of CBPVene-v5 vs CBPVene-v5-LD3v1,"CBPVene-v5, Venetoclax 31.6 nM",27.5418 and 25.4102 and 24.8086
same,Normalized data Figure 5c,"CBPVene-v5, Venetoclax 100 nM",85.9499 and 82.2485 and 75.1301
same,Normalized data Figure 5f,"CBPVene-v5, Venetoclax 100 nM",23.389 and 18.2031 and 16.6277
same,Raw data Figure 5c,"CBPVene-v5, Venetoclax 100 nM",341.802
same,Raw data Figure 5f,"CBPVene-v5, Venetoclax 100 nM",135.101
same,Raw data of Independent repeat of CBPVene-v5 vs CBPVene-v5-LD3v1,"CBPVene-v5, Venetoclax 100 nM",135.101 and 106.556 and 113.538
same,Normalized data Figure 5c,"CBPVene-v5, Venetoclax 316 nM",100 and 99.2625
same,Normalized data Figure 5f,"CBPVene-v5, Venetoclax 316 nM",90.5991 and 73.5543 and 71.7832
same,Raw data Figure 5c,"CBPVene-v5, Venetoclax 316 nM",397.676 and 415.475 and 443.055
same,Raw data Figure 5f,"CBPVene-v5, Venetoclax 316 nM",523.324 and 430.565 and 490.151
same,Raw data of Independent repeat of CBPVene-v5 vs CBPVene-v5-LD3v1,"CBPVene-v5, Venetoclax 316 nM",523.324 and 430.565 and 490.151
same,Normalized data Figure 5c,"CBPVene-v5, Venetoclax 1000 nM",94.7389 and 93.854 and 100
same,Normalized data Figure 5f,"CBPVene-v5, Venetoclax 1000 nM",100
same,Raw data Figure 5c,"CBPVene-v5, Venetoclax 1000 nM",376.754 and 389.94 and 446.347
same,Raw data Figure 5f,"CBPVene-v5, Venetoclax 1000 nM",577.626 and 585.371 and 682.822
same,Raw data of Independent repeat of CBPVene-v5 vs CBPVene-v5-LD3v1,"CBPVene-v5, Venetoclax 1000 nM",585.371 and 682.822
same,Normalized data Figure 5c,"CBPVene-v5, Venetoclax 3160 nM",78.0027 and 76.1858 and 76.8944
same,Normalized data Figure 5f,"CBPVene-v5, Venetoclax 3160 nM",79.8503 and 79.8999 and 73.1753
same,Raw data Figure 5c,"CBPVene-v5, Venetoclax 3160 nM",310.198 and 316.533 and 343.216
same,Raw data Figure 5f,"CBPVene-v5, Venetoclax 3160 nM",461.236 and 467.711 and 499.656
same,Raw data of Independent repeat of CBPVene-v5 vs CBPVene-v5-LD3v1,"CBPVene-v5, Venetoclax 3160 nM",461.236 and 467.711 and 499.656
same,Normalized data Figure 5c,[8],34.0541 and 31.651 and 32.0007
same,Normalized data Figure 5f,[8],53.1633 and 46.1135 and 46.4962
same,Raw data Figure 5c,[8],135.425 and 131.502 and 142.834
same,Raw data Figure 5f,[8],307.085 and 269.935 and 317.486
same,Normalized data Figure 5f,[9],20.7725 and 19.0354 and 15.7869
same,Raw data Figure 5f,[9],37.9718 and 36.6065 and 35.2814
same,Normalized data Figure 5f,[10],20.3227 and 21.226 and 17.4104
same,Raw data Figure 5f,[10],37.1496 and 40.8191 and 38.9099
same,Normalized data Figure 5f,[11],19.4559 and 21.7686 and 18.6086
same,Raw data Figure 5f,[11],35.5651 and 41.8626 and 41.5876
same,Normalized data Figure 5f,[12],37.718 and 36.6086 and 30.2912
same,Raw data Figure 5f,[12],68.9479 and 70.401 and 67.6966
same,Normalized data Figure 5f,"CBPVene-v5-Bcl2v2, Venetoclax 100 nM",81.9466 and 81.1265 and 85.7326
same,Normalized data Figure 5f,[13],100
same,Raw data Figure 5f,[13],182.798 and 192.307 and 223.486
